Our source for the IC50 and inhibition values is patent US5344843A, “Cat-1 inhibitors, pharmaceutical compositions and methods of use” (Hoffman-La Roche Inc., priority 1992, dated 1994).

For assay [1], the target named is T1, CAT-1 (carnitine acyltransferase 1) (Rattus norvegicus, UniProt Q63704).
T1 construct: This preparation is used as the isolated mitochondrial preparation; from tissue; host or cells: rat heart (atria removed), isolated mitochondria
T1 sequence (Q63704 1-772): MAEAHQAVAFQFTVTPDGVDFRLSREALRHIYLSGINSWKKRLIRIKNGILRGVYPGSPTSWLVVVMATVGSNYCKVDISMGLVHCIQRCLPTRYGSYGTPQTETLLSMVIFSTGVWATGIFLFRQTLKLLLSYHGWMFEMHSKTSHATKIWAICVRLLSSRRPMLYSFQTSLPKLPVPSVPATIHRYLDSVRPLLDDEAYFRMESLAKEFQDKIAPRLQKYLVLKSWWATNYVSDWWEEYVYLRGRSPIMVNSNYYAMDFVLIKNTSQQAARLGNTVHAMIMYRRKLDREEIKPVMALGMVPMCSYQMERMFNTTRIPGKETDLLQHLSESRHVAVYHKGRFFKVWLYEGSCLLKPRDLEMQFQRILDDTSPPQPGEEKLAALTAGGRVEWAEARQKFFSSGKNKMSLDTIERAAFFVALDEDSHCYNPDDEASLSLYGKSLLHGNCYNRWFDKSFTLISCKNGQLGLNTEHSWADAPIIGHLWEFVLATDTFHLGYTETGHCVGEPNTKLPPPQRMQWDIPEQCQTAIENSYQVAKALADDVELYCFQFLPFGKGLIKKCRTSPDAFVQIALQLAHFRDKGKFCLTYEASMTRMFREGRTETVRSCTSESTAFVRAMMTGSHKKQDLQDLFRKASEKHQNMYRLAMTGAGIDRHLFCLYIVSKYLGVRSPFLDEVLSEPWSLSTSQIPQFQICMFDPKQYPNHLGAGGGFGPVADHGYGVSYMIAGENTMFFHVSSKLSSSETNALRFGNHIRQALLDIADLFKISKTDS
Put plainly: Primary Screen--Inhibition of CAT-1 in isolated mitochondria. In kind it is biochemical. The note with it: rat heart mitochondria, reduction of palmitoyl carnitine formation by 50%; read-out: Primary Screen IC50.
Description: Primary Screen--Inhibitors of CAT-1 in 1Mitochondria
(a). Preparation of Mitochondria
The heart is rapidly removed from an anesthetized rat (sodium pentabarbitol) and placed in ice-cold homogenization buffer (sucrose, 250 mM; Tris, 10 mM; EDTA, 1 mM; BSA, 0.01%; pH=7.4). The atria and extraneous tissue are removed and the remainder is chopped with scissors. The pieces are rinsed in homogenization buffer before being homogenized in 10 mL of the same buffer for 5-7 seconds. The homogenate is then diluted with homogenization buffer (40 total volume) and centrifuged at 200 g for 20 minutes. The supernatant is withdrawn and centrifuged at 7000 g for 20 minutes and the resulting pellet is isolated, resuspended in 40 mL of homogenization buffer and centrifuged once more at 7000 g for 20 minutes. The isolated pellet is resuspended in 10 mL of homogenization buffer and stored at 4° C. until use. This preparation is used as the isolated mitochondrial preparation.
(b). Inhibition of CAT-1 assay
Isolated mitochondria (20 μL) are incubated with 60 μL of Tris/sucrose buffer (sucrose, 500 mM; Tris, 20 mM; KCl, 100 mM; EDTA, 2 mM; pH=7.0 plus 83 μM palmitoyl CoA, and BSA, 0.8 mg/mL and 10^-4 to 10^-10 M of the drug to be tested. After 10 minutes at 30° C., the reaction is started by addition of 10 μL of ^3 H-carnitine (final concentration=250 μM). After 5 minutes, the reaction is terminated by the addition of ice cold 70% perchloric acid (PCA). The precipitated solids so formed, containing the insoluble product of the enzyme palmitoyl carnitine, are captured on filter paper. The filter paper is washed with 7% PCA, then dried and placed in scintillation vials with 10 mL of scintillant (Aquasol, New England Nuclear) and counted for radioactivity. The rate of the reaction is assessed by the difference in radioactivity between zero time and five minutes in the absence of test compound. The ability of test compounds at selected concentrations to inhibit CAT-1 is determined by their ability to reduce the formation of the radioactive product. The IC50 of the test compound is the concentration of test compound that reduces the formation of radioactive product by 50%.

For assay [2], the target named is T1, CAT-1 (carnitine acyltransferase 1). Put plainly: Secondary Screen--Inhibition of CAT-1 in intact cardiac myocytes (hypoxia-induced increase in long-chain acylcarnitines). Also on record: inhibition: dose or concentration left out as unconfirmed. The note with it: isolated rat cardiac myocytes; for pIC50: 50% inhibition of hypoxia-induced increase in long-chain acylcarnitines. The class given is cell-based.
Description: Secondary Screen--Inhibition of CAT-1 in intact Cardiac Myocytes
(a) Preparation of Isolated Rat Cardiac Myocytes
Four hearts are excised from anesthetized rats and perfused retrogradly via the Langendorf technique. Each heart receives 100 mL of Krebs (NaCl, 118.4 mM; KCL, 4.6 mM; NaH2 PO4, 1.0 mM; NaHCO3, 20 mM; MgSO4, 2 mM; CaCl2, 50 μM; glucose, 11.0 mM), 100 mL of Ca++ free Krebs and finally 100 mL of 0.5% collagenase (Boehringer Mannhelm, type 1) in Hepes (NaCl, 115 mM; KCl, 5 mM; sucrose, 35 mM; glucose, 10 mM; Hepes, 10 mM; taurine, 4 mM; MgSO4, 2 mM; CaCl2, 50 μM). After these perfusions, the hearts are chopped into pieces, approx. 0.5 cm×0.5 cm and placed in four 125 mL plastic bottles along with 25 mL of collagenase/Hepes situated in a water bath maintained at 35° C. The pieces of cardiac tissue in each bottle are agitated by using a Harvard respirator connected to four glass syringes, which sucks the tissue up and down each tube during each respiratory cycle. After fifteen minutes, the collagenase/Hepes is removed and replaced with fresh collegenase/Hepes and the process repeated. The collegenase/Hepes from the subsequent fifteen minute harvests are centrifuged at 500 g to pellet the cells which are then resuspended in Hepes buffer. After six harvests, all cells are pelleted, resuspended in 2×26.5 mL of Hepes plus BSA (350 mg) and layered on top of 2×percoll gradients (21.15 mL percoll, 2.35 mL NaCl, 6 drops acetic acid). This is centfifuged at 3000 g for eight minutes forming a percoll gradient which results in viable cells being separated from damaged cells. The viable cells are removed, washed with Hepes and finally resuspended in 25 mL of Hepes.
The isolated cardiac myocytes (2 mL; approximately 1×10^6 cells) are separated into six glass pods. Into four of these are placed selected concentrations of the compound to be tested, and the cells are incubated for twenty minutes, after which the pods are centrifuged at 300 g for three minutes. 300 μL of normoxic Hepes is placed in one of the pods not containing compound and then all pods are placed in a hypoxic chamber (N2 atmosphere). Oxygen is fed via small bore steel tubes to the pod containing the normoxic buffer, while the other five pods receive pre-purified argon (99.998% pure). After two minutes, Hepes (pre-gassed with argon for at least twelve hours) is fed into the five hypoxic pods. This hypoxic environment (pO2 <10 mm Hg) is maintained for twenty minutes, after which the cells and pods are frozen by contact with a metal block precooled in liquid N2. The pods are then removed from the chamber and stored at -70° C. The carnitine assay is performed, as described below in (c), to determine the amount of long-chain acylcarnitine in the cells from the normoxic, hypoxic and hypoxic plus compound samples. […] Thus the IC50 in this screen is the concentration of test compound which produces a 50% inhibition of the hypoxia-induced increase in long-chain acylcarnitines.
(c) Long-chain Acylcarnitine Assay.
The frozen cell samples are thawed, mixed and homogenized with 40 μL of 70% PCA. The homogenate is transferred to eppendorf tubes while the homogenization tube and the glass pod is rinsed with 500 μL of 7% PCA, with the rinse being added to the eppendorf tube. This is then centrifuged at 1000 g for two minutes to pellet the precipitate (containing the long-chain acylcarnitine) and the supernatant is discarded. The pellet is washed twice with 500 μL of 7% PCA, the supernatants being discarded. The pellet is then hydrolyzed (to separate the acyl unit from carnitine to yield free carnitine) by the addition of 200 μL of aleionized H2 O and 50 μL of 5N KOH and incubated at 70° C. for ninety minutes.

Molecules are shown by their SMILES. pIC50: −log10 of the molar value. Structures can show the parent of a compound that is named as a salt.

By pIC50 is commonly meant the negative decadic logarithm of the IC50, by convention in mol/L. Turning to `O=C(O)/C(=N\O)c1ccc(OCCOc2ccc3ccccc3c2)cc1` [Example 301, (Z)-alpha-(hydroxyimino)-4-[2-(2-naphthalenyloxy)ethoxy]benzeneacetic acid], the pIC50 in assay [1] was 6.24; in assay [2] it was 5.70.

`O=C(O)C(=O)c1ccc(OCCCC(=O)c2ccc3ccccc3c2)cc1` [Example 282, 4-[[4-(2-naphthalenyl)-4-oxobutyl]oxy]-alpha-oxobenzeneacetic acid]: the pIC50 is 6.40 in assay [1] and 5.10 in assay [2].

For `O=C(O)C(=O)c1ccc(OCCOc2ccc3ccccc3c2)s1` [Example 4, 5-[[2-(2-naphthalenyloxy)ethyl]oxy]-alpha-oxo-2-thiopheneacetic acid], the pIC50 in assay [1] was 7.30; in assay [2] it was 6.00.

As to `Cc1cc(C(=O)C(=O)O)ccc1OCCOc1ccc2ccccc2c1` [Example 181, 3-methyl-4-[2-(2-naphthalenyloxy)ethoxy]-alpha-oxobenzeneacetic acid], the pIC50 in assay [1] was 6.40; in assay [2], 5.12.

For `O=C(O)C(F)(F)c1ccc(OCCOc2ccc3ccccc3c2)cc1` [Example 13, alpha, alpha-difluoro-4-[[2-(2-naphthalenyloxy)ethyl]oxy]benzeneacetic acid], the pIC50 in assay [1] is 5.76; in assay [2], 5.42.

Take `CCC(C)(C)C(=O)OCc1cccc(C)c1/C=C/COc1ccc(C(=O)C(=O)O)cc1` [Example 220, (E)-4-[3-[2-[(2,2-dimethyl-1-oxobutoxy)methyl]-6-methylphenyl]-2-propenyloxy]-alpha-oxobenzeneacetic acid]: the pIC50 is 5.80 in assay [1] and 7.05 in assay [2].

Consider `O=C(O)C(=O)c1c(F)cc(OCCOc2ccc3ccccc3c2)cc1F` [Example 201, 2,6-difluoro-4-[2-(2-naphthalenyloxy)ethoxy]-alpha-oxobenzeneacetic acid], for which the pIC50 in assay [1] was 6.08; in assay [2], 5.15.

Take `CCC(C)(C)C(=O)OCc1cccc(C)c1/C=C\COc1ccc(C(=O)C(=O)O)cc1` [Example 215, (Z)-4-[3-[2-(2,2-dimethyl-1-oxobutoxy)methyl]-6-methylphenyl]-2-propenyloxy]-alpha-oxobenzeneacetic acid (1:1) morpholine salt]: the pIC50 in assay [1] was 5.70; in assay [2], 5.05.

Consider `O=C(O)C(=O)c1ccc(OCC(=O)c2cccc3ccccc23)cc1` [Example 284, 4-[2-(1-naphthalenyl)-2-oxoethoxy]-alpha-oxobenzeneacetic acid], for which the pIC50 in assay [1] is 7.52; in assay [2], 6.10.

For orientation: inhibition means the change of the read-out against control, counted positive when it falls. Take `O=C(O)C(=O)c1ccc(OCCCCCCc2cccc(O)c2O)cc1` [Example 260, 4-[6-(2,3-dihydroxyphenyl)hexyloxy]-alpha-oxobenzeneacetic acid]: the pIC50 in assay [1] is 5.40. The compound also came in with an inhibition in assay [2] (hypoxia) of 94%.

For `CN(C)CCOC(=O)C(=O)c1ccc(OCCOc2ccc3ccccc3c2)cc1` [Example 106, 4-[[2-(2-naphthalenyloxy)ethyl]oxy]-alpha-oxobenzeneacetic acid 2-(dimethylamino)ethyl ester], the pIC50 in assay [1] was 7.05; in assay [2], 6.00.
